Assay results taken from patent publication US9505721B2, “Aromatic imide compound and method for producing same” (AZ ELECTRONIC MATERIALS (LUXEMBOURG) S.A.R.L., priority 2012, dated 2016).

Tests used:
[1] = Ultraviolet and visible absorption spectrum (absorbance at i-, h- and g-line); type: physicochemical; conditions: measurement solvent dichloromethane
Protocol: [3] Ultraviolet and visible absorption spectrum Types of machines: Varian Cary4000 manufactured by Agilent Technologies, Inc.
(§1) Measurement solvent: Dichloromethane
Absorption spectrums of compounds obtained in Examples 1 to 5 were measured. Furthermore, N-trifluoromethanesulfonyloxy-1,8-naphthalimide was used as a comparative example.

[2] = Evaluation test of acid generating ability (UV irradiation, BCG pH probe); type: physicochemical; conditions: solution in dichloromethane with BCG, before irradiation
Protocol: It was measured and evaluated by devices and a method (Evaluation test of acid generating ability) described below whether compounds obtained in Examples above acted as an acid generator under photoirradiation. The actual evaluation was conducted by use of Compound 1H. Devices used in evaluation are as follows.
as §1
(1) […] Compound 1H solution in dichloromethane was prepared and a few drops of 50% bromocresolgreen (BCG) solution in ethanol were added in this solution as pH probe.
(2) The absorption spectrum of the solution was measured and it was checked that there are maximum absorption spectrums of Compound 1H in 300-400 nm and BOG in 630 nm. The color of this solution was dark blue.
(3) The absorption spectrum of the solution was measured every 2 minutes while irradiating the solution described (2) above by UV lamp. At this time, the progress of attenuation concerning absorption maximum of BCG spectrum and the discoloration situation of dark blue color in the solution due to the pH decline of the system by generation of acids were observed by eyes.

SMILES	absorbance 365 nm (i-line) [1]	absorbance 405 nm (h-line) [1]	absorbance 436 nm (g-line) [1]	maximum absorption spectrum [2]
O=C1c2cccc3cccc(c23)C(=O)N1OS(=O)(=O)C(F)(F)F [Comparative example, N-trifluoromethanesulfonyloxy-1,8-naphthalimide, reference compound]	0.02925	0.005575	0.004642	
O=C1c2cccc3c(C#Cc4ccccc4)ccc(c23)C(=O)N1OS(=O)(=O)C(F)(F)F [Compound 1H, N-trifluoromethanesulfonyloxy-4-phenylethynyl-1,8-naphthalimide]	0.4162	0.5112	0.01499	300-400 nm
